# Experimental data from patent US12570612B2, “Substituted nitrogen heterocyclic compound and anesthetic effect thereof” (priority 2019, dated 2026).
# Entries after “also recorded” stand apart in the source; their conditions may differ. Where two headings read alike, the source gives them in different places.
# Experiments:
# [1] = system: Sprague-Dawley rats; assay: animal or person
# Procedure: (§1) Adult male Sprague-Dawley rats (250-300 g) were selected for the experiment. […] The anesthesia effects of the compounds were assessed in rats using a LORR assay and a period >30 s was considered as an indicator of general anesthesia.
# [2] = system: H295R cell line; assay: Adrenocortical function in vitro test: secretion of cortisol and corticosterone, Group A compounds; type: cell-based; details: H295 cells; for EC50: Homo sapiens, 0.1-10000 nM, HPLC-MS/MS
# [3] = system: Sprague-Dawley rats
# Procedure: Adult male Sprague-Dawley rats with body weight ranging from 250 to 300 gm were selected for continuous infusion test. […] Time to recovery of righting reflex from stopping infusion, and time to fully awake from stopping infusion were recorded.
# [4] = system: Sprague-Dawley rats; assay: animal or person; remark: listed apart in the source
# Procedure: as §1
# [5] = system: H295R cell line; assay: Adrenocortical function in vitro test: secretion of cortisol and corticosterone, Group B compounds; type: cell-based; details: H295R cells; for EC50: Homo sapiens, NCI-H295R, 0.1-10000 nM, HPLC-MS/MS
# [6] = system: circulatory function of rats; details: rat, in vivo
# Procedure: First, animal models were established. […] At least one week after surgery, data were recorded.
# Finally, the pharmacological effects, adverse reactions, and behavioral manifestations of the rats were observed and recorded
# After data acquisition, the test was stopped.
# [7] = system: Sprague-Dawley rats; assay: Continuous infusion at 2 times the MIR for 1 hour, Group B compounds; type: in vivo
# [8] = system: Sprague-Dawley rats; assay: animal or person; type: in vivo; details: Rattus norvegicus; LORR, up and down method, tail vein, rats; brackets = 95% confidence limit; read-out: ED50
# Excerpt: (§2) Evaluating indicator: The end point of anesthesia: LORR was used as the end point of anesthesia; General anesthesia effect: the disappearance of forepaw righting reflex in rats lasting for 30 seconds is taken as the index of general anesthesia effect; Anesthesia recovery index: the recovery of rat forepaw righting reflex was used as the index of anesthesia recovery.
# [9] = system: Sprague-Dawley rats; assay: Pharmacological effect and adverse reactions under the equivalent dose (2ED50), Group C compounds; type: in vivo
# Excerpt: (§3) Evaluation index: onset time: from the completion of drug injection to the disappearance of forepaw righting reflex in rats; Duration of anesthesia: the time from the disappearance of rat forepaw righting reflex to the recovery of rat forepaw righting reflex; Recovery time of anesthesia: the time from the […] to complete recovery;
# [10] = system: SD rats
# How it was run: (§4)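 Adult male SD rats (250–350 g) received continuous infusion. Read-outs: time from infusion start to […]; after 1 h infusion, time from stop to return of forepaw turning reflex and to full recovery.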
# [11] = system: Sprague-Dawley rats; assay: animal or person; type: in vivo; details: Rattus norvegicus; LORR, up and down method, tail vein, rats; brackets = 95% confidence limit; read-out: ED50; remark: listed apart in the source
# Excerpt: as §2, with “the disappearance of forepaw righting reflex (lorr)” for “LORR”
# [12] = system: Sprague-Dawley rats; assay: Pharmacological effect and adverse reactions under the equivalent dose (2ED50), Group D compounds; type: in vivo
# Excerpt: as §3
# [13] = system: SD rats; remark: listed apart in the source
# How it was run: as §4
# [14] = system: adrenal cortex function; details: rat, in vivo
# [15] = system: circulatory function of rats; details: rat, in vivo; remark: listed apart in the source
# [16] = system: adrenal cortex function; details: rat, in vivo; remark: listed apart in the source
# [17] = system: Sprague-Dawley rats; type: in vivo; details: tail vein
# [18] = system: Sprague-Dawley rats; type: in vivo; details: tail vein; remark: listed apart in the source
# [19] = target: T1, 11β-Hydroxylase (Homo sapiens, UniProt P15538); details: cited from earlier work
# T1 sequence (P15538 25-503): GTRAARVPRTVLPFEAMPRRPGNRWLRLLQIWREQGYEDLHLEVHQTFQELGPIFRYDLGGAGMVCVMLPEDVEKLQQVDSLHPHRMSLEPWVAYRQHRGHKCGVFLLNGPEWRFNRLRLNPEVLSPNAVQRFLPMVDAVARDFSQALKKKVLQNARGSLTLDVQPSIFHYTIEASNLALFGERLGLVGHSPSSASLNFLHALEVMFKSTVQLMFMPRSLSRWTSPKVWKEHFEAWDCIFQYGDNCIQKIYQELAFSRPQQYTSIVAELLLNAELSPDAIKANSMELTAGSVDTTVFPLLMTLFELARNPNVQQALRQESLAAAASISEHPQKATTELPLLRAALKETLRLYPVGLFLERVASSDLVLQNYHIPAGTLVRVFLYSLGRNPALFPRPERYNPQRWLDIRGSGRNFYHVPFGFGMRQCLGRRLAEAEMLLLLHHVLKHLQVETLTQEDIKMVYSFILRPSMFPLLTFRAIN
# [20] = system: circulatory function of rats; assay: Circulatory function of rats (MAP, HR) by implanted telemetry, Group C compounds; details: 2ED50, rats, FIG. 13-16
# Excerpt: (§5) First, the animal model was established, and the left ventricular catheter, abdominal aorta catheter and electrocardiogram wire were placed. At least one week after the operation, the signal can be collected to start the test. At the beginning of the experiment, after the placement of the indwelling needle in the tail vein of rats, connect the extension tube, put the rats together with the feeding cage on the signal receiver and start collecting data. […] All compounds or drugs were given at a constant volume of 0.6 ml at a uniform rate of 0.1 ml/s.
# [21] = system: circulatory function of rats; assay: Circulatory function of rats (MAP, HR) by implanted telemetry, Group D compounds; details: 2ED50, rats, FIG. 19-22
# Excerpt: as §5
# Evaluation indexes: Collect the blood pressure, heart rate and other data of rats during and 15 minutes after administration, and judge the effect of the compound of the invention on the circulatory function of rats with the indexes of mean arterial pressure (MAP) and heart rate (HR).
# [22] = read-out: EC50 (Corticosterone)
# [23] = continuous infusion 2 x MIR 1 hour, rats affected/rats
# [24] = 2ED50, tail vein, rats, n=8, unit s
# [25] = equivalent dose (2ED50), number of rats of n = 8
# [26] = after 1 hour continuous infusion at 2 times the MIR, SD rats
# [27] = continuous tail vein infusion at 2 times the MIR, SD rats
# [28] = equivalent dose (2 × ED50), number of rats of n = 8
structure (smiles),measurement,setting,value
"CCOC(=O)c1cncn1C(C)c1ccccc1 (stereo not drawn) [Etomidate, reference compound]",ED50,[1]; Rattus norvegicus,0.75 mg/kg
same,Minimal lethal dose,[1]; rats,12.75 mg/kg
same,Corticosterone as an indicator to determine the presence of inhibition,[2],2
same,Cortisol as an indicator to determine the presence of inhibition,[2],2
same,EC50,[2]; [22],> 10 nM
same,EC50,[2]; read-out: EC50 (Cortisol),> 1 nM
same,Recovery time after stopping infusion,"[3]; LORR maintained for 1 hour, 2 times the MIR",25 to 30 min
same,Onset time,"[3]; continuous infusion, 2 times the MIR",4 to 5 min
same,Types and incidence of adverse reactions,"[3]; continuous infusion, (animals affected/animals)","Tonguestretching(5/6); also recorded: Tremor(6/6), Facial; also recorded: muscle twitching (4/6)"
same,ED50,"[4]; Rattus norvegicus, LORR in rats, tail vein, brackets = 95% confidence limit",0.75 mg/kg
same,Minimal lethal dose,[4]; rats,12.75 mg/kg
same,Corticosterone as an indicator to determine the presence of inhibition,[5],2
same,Cortisol as an indicator to determine the presence of inhibition,[5],2
same,EC50,[5]; [22],> 10 nM
same,EC50,[5]; read-out: EC50 (Cortisol),> 1 nM
same,"inhibitory effect on the circulatory function (MAP, HR)",[6],almost no inhibitory effect on the circulatory function
same,Recovery time after stopping infusion,"[7]; after 1 hour continuous infusion at 2 times the MIR, rats",25 to 30 min
same,Types and incidence of adverse reactions: Facial muscle twitching,[7]; [23],4/6
same,Types and incidence of adverse reactions: Tongue stretching,[7]; [23],Tongue stretching (5/6)
same,Types and incidence of adverse reactions: Tremor,[7]; [23],"Tremor (6/6), Facial"
same,Onset time,"[7]; continuous tail vein infusion at 2 times the MIR, emulsion, rats",4 to 5 min
same,ED50,[8],0.74 mg/kg
same,Onset time,[9]; [24],<30 s
same,Adverse reaction: Convulsions,[9]; [25],0
same,"Adverse reaction: Cough, broken-winded",[9]; [25],0
same,Adverse reaction: Euphoria,[9]; [25],0
same,"Adverse reaction: Slower breathing, Tetany convulsion",[9]; [25],0
same,"Adverse reaction: Systemic stiffness, Convulsions, Opisthotonus",[9]; [25],0
same,Adverse reaction: Tongue stretching,[9]; [25],4
same,Adverse reaction: Tremor,[9]; [25],6
same,Adverse reaction: the four limbs rigidity,[9]; [25],0
same,After the infusion is stopped: Righting reflex recovery time,[10]; [26],15 to 20 min
same,Recovery time after stopping infusion,[10]; [26],30 to 40 min
same,Types and incidence of adverse reactions: Hindlimb rigidity,[10]; [23],Hindlimb rigidity(2/6)
same,Types and incidence of adverse reactions: Myoclonus,[10]; [23],4/6
same,Types and incidence of adverse reactions: Tongue stretching,[10]; [23],"Tongue stretching(2/6),"
same,Types and incidence of adverse reactions: Tremor,[10]; [23],6/6
same,Sedation onset time,[10]; [27],<5 min
same,ED50,[11],0.74 mg/kg
same,Onset time,[12]; [24],<30 s
same,Adverse reaction: Convulsions,[12]; [28],0
same,"Adverse reaction: Cough, broken-winded",[12]; [28],0
same,Adverse reaction: Euphoria,[12]; [28],0
same,Adverse reaction: Four limbs rigidity,[12]; [28],2
same,"Adverse reaction: Slower breathing, Tetany convulsion",[12]; [28],0
same,"Adverse reaction: Systemic stiffness, Convulsions, Opisthotonus",[12]; [28],0
same,Adverse reaction: Tongue stretching,[12]; [28],4
same,Adverse reaction: Tremor,[12]; [28],3
same,After the infusion is stopped: Righting reflex recovery time,[13]; [26],15 to 20 min
same,Recovery time after stopping infusion,[13]; [26],30 to 40 min
same,Types and incidence of adverse reactions: Hindlimb rigidity,[13]; [23],Hindlimb rigidity(2/6)
same,Types and incidence of adverse reactions: Myoclonus,[13]; [23],4/6
same,Types and incidence of adverse reactions: Tongue stretching,[13]; [23],"Tongue stretching(2/6),"
same,Types and incidence of adverse reactions: Tremor,[13]; [23],6/6
same,Sedation onset time,[13]; [27],<5 min
same,effect on the synthesis of adrenal cortex hormone (serum corticosterone),[14],obvious inhibitory effect on adrenal cortex function
same,"inhibitory effect on the circulatory function (MAP, HR)",[15],almost no inhibitory effect on the circulatory function
same,effect on the synthesis of adrenal cortex hormone (serum corticosterone),[16],obvious inhibitory effect on adrenal cortex function
same,Minimal lethal dose,[17],13.8 mg/kg
same,Minimal lethal dose,[18],13.8 mg/kg
same,inhibition of 11β-Hydroxylase,[19],can inhibit the key enzymes in the synthesis pathway of adrenocortical hormone
same,"effect on the circulatory function (MAP, HR)",[20],"slight inhibitory effect on the circulatory function after administration, but soon rises to near the baseline"
same,"effect on the circulatory function (MAP, HR)",[21],"slight inhibitory effect on the circulatory function after administration, but soon rises to near the baseline"
